Patent EP0338306A2, “Halogen-substituted phenoxybenzyl compounds” (BAYER AG, priority 1988, dated 1989)

Key:
[1] = tested on: Unkräuter, wie z. B. Datura, Galium, Polygonum, Portulak, Sinapis und Solanum; test: Post-emergence test (herbicidal action on weeds); assay type: in vivo; conditions: post-emergence spray on test plants 5 - 15 cm high, 2000 l Wasser/ha, rated after three weeks as % Schädigung vs untreated control; result stated in comparison with Vergleichssubstanz (A)
From the text: (§1) Lösungsmittel: 5 Gewichtsteile Aceton Emulgator: 1 Gewichtsteil Alkylarylpolyglykolether
(§2) Zur Herstellung einer zweckmäßigen Wirkstoffzubereitung vermischt man 1 Gewichtsteil Wirkstoff mit der angegebenen Menge Lösungsmittel, gibt die angegebene Menge Emulgator zu und verdünnt das Konzentrat mit Wasser auf die gewünschte Konzentration. Mit der Wirkstoffzubereitung spritzt man Testpflanzen, welche eine Höhe von 5 - 15 cm haben so, daß die jeweils gewünschten Wirkstoffmengen pro Flächeneinheit ausgebracht werden. Die Konzentration der Spritzbrühe wird so gewählt, daß in 2000 l Wasser/ha die jeweils gewünschten Wirkstoffmengen ausgebracht werden. Nach drei Wochen wird der Schädigungsgrad der Pflanzen bonitiert in % Schädigung im Vergleich zur Entwicklung der unbehandelten Kontrolle.

Weizen = test: Post-emergence test (crop selectivity); assay type: in vivo; conditions: post-emergence spray, 2000 l Wasser/ha, rated after three weeks
From the text: as §1, §2

SMILES | Wirkung gegen Unkräuter [1] | Selektivität in Weizen (Weizen)
FC(F)(F)c1ccc(Oc2ccc(Cl)c(CBr)c2)c(Cl)c1 [Beispiel 1, 2-Chlor-5-(2-Chlor-4-trifluormethyl-phenoxy)-benzylbromid] | erheblich stärkere Wirkung | guter Selektivität
CCOC(=O)C(C)(O)Cc1cc(Oc2c(Cl)cc(C(F)(F)F)cc2Cl)ccc1Cl (stereo not shown) [Beispiel 6, 1-Hydroxy-1-methyl-2-(2-chlor-5-(2,6-dichlor-4-trifluormethyl-phenoxy)-phenyl)-propionsäure-ethylester] | erheblich stärkere Wirkung | guter Selektivität
